Measured values published in patent US9593069B2, “Cyclohexane-1,3-diones for use in the treatment of amyotrophic lateral sclerosis” (Northwestern University, priority 2009, dated 2017).
pEC50, pIC50: −log10 of the molar value. Converted amounts (≈) assume the structure as drawn. Where two headings read alike, the source gives them in different places. Peptide text beside a SMILES is read from it. * marks the point of attachment. Cbz = O=C(OCc1ccccc1)*

Assays:
[1] = test system: PC12 cells that express mutant G93A SOD1; assay: High throughput cytotoxicity protection assay (PC12 Protection Assay); type: cell-based
Source text: Cultured cells are utilized to conduct high throughput assays for compounds that protect against mutant SOD1-induced cytotoxicity. Two assays are used: first, in the cytotoxicity protection assay, compounds are screened for their ability to protect cells from the cytotoxic effects of aggregated mutant SOD1, irrespective of mechanism of drug action. Second, in the protein aggregation assay, compounds are screened for their ability to reduce aggregation of mutant SOD1. The high throughput cytotoxicity protection assay is the primary screen and compounds active in the primary screen (and their analogs) move forward into the secondary screen for protein aggregation.
(§1) The high throughput cytotoxicity protection assay was carried out in PC12 cells that express mutant G93A SOD1 as a YFP fusion protein from a doxycycline-inducible promoter (Matsumoto et al., J. Cell. Biol. 2005, 171, 75). […] This idea was tested by examining the sensitivity of PC12 cells to SOD1 aggregates in the presence and absence of proteasome inhibitor MG132. PC12 cells expressing no SOD1, wild type SOD1, G85R SOD1 or G93A SOD1 were grown with or without MG132 (FIG. 1). Cells expressing no SOD1, wild type SOD1 and G85R SOD1 were relatively insensitive to MG132, with an IC50 of approximately 400 nM. […] In these cells, protein aggregation was detected after 24 h and loss of cell viability was detected at approximately 48 h. […] The ability of protein aggregates to induce cell death was examined by treating G93A SOD1-expressing cells with MG132 for 24 h, removing the MG132 by washing and assaying cell viability after another 24 h. Because the loss of cell viability was similar following MG132 removal (FIG. 1, part C), it is likely that mutant SOD1 aggregates contribute directly to cytotoxicity in PC12 cells.
(§2) PC12 cells expressing G93A SOD1 were treated with 100 nM MG132 with or without co-treatment with geldanamycin or radicicol. […] Statistical analysis of the data produced a Z′ value of 0.55, which would predict good performance as a positive control in a high throughput screen (Zhang et al., J. Biomol. Screen 1999, 4(2), 67-73).

[2] = test system: primary cortical neurons; assay: Neuronal penetration assay (protection from MG132 toxicity); type: cell-based; conditions: for Different from control at 5 SD*: primary cortical neurons, toxic dose of MG132, 5 SD = Standard Deviation (5σ)
Description: Neurons are a highly differentiated cell type, and it has been commonly observed that many chemical structures are unable to penetrate into these cells. In many embodiments, a drug used to treat a neurodegenerative disease should desirably penetrate into neurons.
A neuronal penetration assay was developed as follows. […] In order to determine if this compound could protect primary cortical neurons from MG132 toxicity primary cortical neurons were treated with a toxic dose of MG132 together with various concentrations of 5-(3,5-bis(trifluoromethyl)phenyl)cyclohexane-1,3-dione. […] Analogs of 5-(3,5-bis(trifluoromethyl)phenyl)cyclohexane-1,3-dione were then prepared and tested to determine whether chemical modifications would lead to a compound with neuronal cell penetrating ability. […] As summarized in Table 2 below, these analogs also retained protective activity against mutant SOD1 toxicity.

[3] = test system: PC12 cells expressing G93A SOD1; assay: MG132 sensitivity, cell survival by viability stain calcein-AM; type: cell-based; conditions: for toxicity (cell survival): 100 nM
Description: (§3) FIGS. 1A-C. Proteasome inhibition is selectively toxic to PC12 cells expressing mutant G93A SOD1. Cell survival was determined using the viability stain calcein-AM.
as §1

[4] = Solubility; type: physicochemical; conditions: aqueous solution
Description: Because compounds are stored in DMSO, it is necessary to determine aqueous solubility of initial hit compounds and their analogs. High solubility in aqueous solution is necessary for high GI absorption, bioavailability, and for chemical formulation. Compounds should be soluble in aqueous solution at >10 μg/ml. Solubility of >50 μg/ml is preferred.

[5] = Human metabolic potential; type: in vitro ADME
Description: (§4) Liver Cytochrome P450 (CYP450) enzymes are the major route for xenobiotic metabolism and microsomal and hepatocyte stability is the best predictor of pharmacokinetic half-life. Cross-species comparisons of metabolism in liver microsomes can predict potential issues with liver toxicity in humans. Selected active compounds are tested in liver microsomes from efficacy species (mouse), toxicity species (rat, dog, monkey), and humans for metabolic stability.

[6] = Mouse metabolic potential; type: in vitro ADME
Description: as §4

[7] = Plasma stability; type: in vitro ADME
Description: Plasma stability of active compounds is assessed in efficacy species (mouse), toxicity species (rat, dog, monkey), and human cells.

[8] = test system: Caco-2; assay: Caco-2 permeability; type: in vitro ADME
Description: High membrane permeability is required for effective GI absorption and optimal bioavailability. Passive permeability is typically assessed in the PAMPA artificial membrane assay (Kansy et al., J. Med. Chem. 2002, 45(8), 1712-1722). Cell-based permeability determinations using the Caco-2 cell assay are more resource intensive but more predictive of active transport or efflux in vivo (Artursson et al., Adv. Drug. Deliv. Rev. 2001, 46(1-3), 27-43). Caco-2 assays are performed as needed during SAR development.

[9] = test system: PC12 cells expressing G85R SOD1; assay: Mutant SOD1 direct protein aggregation assay; type: cell-based
Source text: Compounds that are active in the above assay could theoretically protect against mutant SOD1-induced cytotoxicity through a number of mechanisms, including the following: 1) Compounds could nonspecifically block or reverse protein aggregation via chaperone induction, as observed for radicicol and geldanamycin 2) Compounds could block or reverse the aggregation of a specific aggregated protein form 3) Compounds could interfere with an event downstream of protein aggregation that plays a critical role in mutant SOD1-induced cytotoxicity (e.g., proteasome function). 4) Compounds could act directly on SOD1 in a manner that prevents mutant SOD1 aggregation. These possibilities were tested using an assay that directly measures protein aggregation. In addition, unlike the high throughput cytotoxicity protection assay, the protein aggregation assay is based on G85R SOD1; this broadens the scope of the screening strategy, and should eliminate compounds with highly specific activity (i.e., G93A SOD1 limited) against protein aggregation.
(§5) In PC12 cells that express wild-type SOD1, SOD1 was diffusely localized throughout the cell (Matsumoto et al., J. Cell. Biol 2005, 171(1), 75-85). […] Therefore, these effects are likely to be due to MG132-induced proteasome inhibition, and not due to an off-target effect of MG132.
(§6) The identification of a positive control is a crucial step in assay development. Thus, PC12 cells expressing G85R or G93A mutant SOD1 were treated with MG132 to induce protein aggregation, and then co-treated with candidate chemical suppressors of protein aggregation. […] Both compounds induce heat shock transcription factor HSF-1, which in turn induces the heat shock response (FIG. 4). Treatment with radicicol reduced the proportion of cells with aggregates from 75% to 25%, a sufficient difference to allow visual scoring for compounds with efficacy equal to or greater than radicicol.
To allow this assay to be used in a high-throughput manner, a Cellomics Arrayscan® high content microscopy system was used for screening and quantification. […]

[10] = test system: PC12 cells expressing G93A mutant SOD1; assay: Mutant SOD1 direct protein aggregation assay; type: cell-based
Description: as §2, §5, §6

[11] = test system: PC12 cells expressing no SOD1, wild type SOD1 and G85R SOD1; assay: MG132 sensitivity, cell survival by viability stain calcein-AM; type: cell-based; conditions: Rattus norvegicus, PC-12, read-out: IC50 (loss of cell viability)
Description: as §3, §1

[12] = test system: PC12 cells expressing wild-type SOD1; assay: Mutant SOD1 direct protein aggregation assay; type: cell-based
Source text: as §5

[13] = In vivo pharmacological properties
[14] = Rattus norvegicus, PC-12; read-out: PC12 Protection Assay (Average EC50)

Compound: O=C1CC(=O)CC(C2CC2c2cc(C(F)(F)F)cc(C(F)(F)F)c2)C1 (stereo not drawn)
- pEC50 [1, 14]: ~5.46
- Different from control at 5 SD* [2]: YES

Compound: CC(C)C[C@H](NC(=O)[C@H](Cc1ccccc1)NC(=O)c1cnccn1)B(O)O [bortezomib]
- sensitivity of PC12 cell lines to proteasome inhibitor, compared with MG132 [3]: Qualitatively similar results

Compound: O=C1CC(=O)CC(c2cc(C(F)(F)F)cc(C(F)(F)F)c2)C1 [drawing 217]
- pEC50 ([1]; Rattus norvegicus, PC-12; read-out: Potency (EC50)): 6.15
- solubility [4]: 500 µM (≈ 162 µg/mL)
- Human Metabolic Potential [5]: low
- half-life ([5]; liver microsomes, read-out: Human Metabolic Potential T1/2): > 3 h
- Mouse Metabolic Potential [6]: low
- half-life ([6]; liver microsomes, read-out: Mouse Metabolic Potential T1/2): > 3 h
- Plasma Stability [7]: medium
- Caco-2 predicted permeability [8]: high predicted permeability
- Caco-2 A − B ([8]; A − B): 38 ×10⁻⁶ cm/s

Compound: CC(Oc1cc(C(F)(F)F)cc(C(F)(F)F)c1)C1CC(=O)CC(=O)C1 (stereo not drawn)
- pEC50 ([1]; Rattus norvegicus, PC-12, read-out: PC12 Protection Assay (Average EC50)): ~5.40
- Different from control at 5 SD* [2]: YES

Compound: C[C@@H]1C[C@H]2O[C@@H]2/C=C\C=C\C(=O)Cc2c(Cl)c(O)cc(O)c2C(=O)O1 [radicicol]
- cell viability of G93A SOD1 cells under MG132 ([1]; co-treatment with 100 nM MG132): increased cell viability in a dose-dependent manner
- cell viability of G93A SOD1 cells under MG132 ([1]; co-treatment with 100 nM MG132; listed as Radicicol): protects
- suppression of MG132-induced mutant SOD1 aggregation ([9]; G93A or G85R SOD1 cells, MG132 co-treatment): aggregates are reduced
- proportion of cells with aggregates on co-treatment ([9]; PC12 cells expressing G85R or G93A mutant SOD1, MG132 co-treatment, 75% without): 25%
- formation of protein aggregates ([10]; G93A SOD1 cells, 100 nM MG132): reduced formation of protein aggregates

Compound: CC(C)C[C@@H](C=O)NC(=O)[C@H](CC(C)C)NC(=O)[C@H](CC(C)C)NC(=O)OCc1ccccc1 [MG132] (Cbz-Leu-Leu-Leu-aldehyde)
- toxicity (cell survival) ([3]; 24 hr, any of the cell lines): no toxicity
- toxicity (cell survival) ([3]; after 48 hours): selectively toxic to the G93A SOD1 cell line
- sensitivity of G93A SOD1 cells relative to the other cell lines ([3]; G93A SOD1 vs no SOD1, wild type SOD1, G85R SOD1 cells): approximately 5 fold
- pIC50 ([3]; Rattus norvegicus, PC-12, read-out: IC50 (loss of cell viability)): ~7.12
- pIC50 [11]: ~6.40
- cells containing protein aggregates after treatment ([9]; cells expressing G85R SOD1): up to 75%
- cells with protein aggregates following treatment ([10]; cells expressing G93A mutant SOD1): 75%
- protein aggregation after treatment [12]: no aggregation was observed

Compound: CCCCCCCCCCC(=O)OC1=CC(=O)CC(c2cc(C(F)(F)F)cc(C(F)(F)F)c2)C1 (stereo not drawn)
- pEC50 [1, 14]: ~5.82

Compound: O=C1CC(=O)CC(c2cc(C(F)(F)F)cc(C(F)(F)F)c2)C1 [drawing 215]
- pEC50 [1, 14]: ~5.82

Compound: O=C1CC(=O)CC(c2cc(C(F)(F)F)cc(C(F)(F)F)c2)C1 [5-(3,5-bis(trifluoromethyl)phenyl)cyclohexane-1,3-dione]
- pEC50 ([1]; Rattus norvegicus, PC-12; read-out: potency): ~5.82
- protection of cultured PC12 cells / protective activity against mutant SOD1 toxicity ([1]; toxic effects of MG132): protects cultured PC12 cells from the toxic effects of MG132
- protection of primary cortical neurons from MG132 toxicity ([2]; various concentrations, FIG. 6): no dose of this compound was effective in protecting the primary cortical neurons
- half-life ([13]; blood): ~3.5 h
- blood brain barrier penetration ([13]; in vivo): penetration of the blood brain barrier
- volume of distribution in vivo ([13]; in vivo): surprisingly small volume of distribution
- oral availability ([13]; in vivo, po): good oral availability
